Source: BindingDB's records for doi:10.1021/jm9901125 (Sapienza University of Rome, 2000)

Target: T1, Gag-Pol polyprotein [588-1027]/[588-1147] (Human immunodeficiency virus 1, UniProt P04585)
T1 construct: 588-1027; 588-1147
Experiment: HIV-1 RT Assay
Details: pH 7.8; 37 °C

| Structure (SMILES) | IC50 |
| --- | --- |
| CCOC(=O)c1cccn1S(=O)(=O)c1cc(Cl)ccc1-n1cccc1 [Ethyl 1-{[5-Chloro-2-(1H-pyrrol-1-yl)phenyl]sulfonyl}-1H-pyrrole-2-carboxylate] | > 100000 nM |
| CCOC(=O)c1cc(C(C)O)cn1S(=O)(=O)c1cc(Cl)ccc1N (stereo unspecified) [ethyl 1-[(2-amino-5-chlorobenzene)sulfonyl]-4-(1-hydroxyethyl)-1H-pyrrole-2-carboxylate] | 170 nM |
| CCOC(=O)c1cc(CO)cn1S(=O)(=O)c1cc(Cl)ccc1N [ethyl 1-[(2-amino-5-chlorobenzene)sulfonyl]-4-(hydroxymethyl)-1H-pyrrole-2-carboxylate] | 50 nM |
| CCOC(=O)c1cc(COC)cn1S(=O)(=O)c1cc(Cl)ccc1N [ethyl 1-[(2-amino-5-chlorobenzene)sulfonyl]-4-(methoxymethyl)-1H-pyrrole-2-carboxylate] | 600 nM |
| CCOC(=O)c1cc(COc2ccccc2)cn1S(=O)(=O)c1cc(Cl)ccc1N [ethyl 1-[(2-amino-5-chlorobenzene)sulfonyl]-4-(phenoxymethyl)-1H-pyrrole-2-carboxylate] | 600 nM |
| CCOC(=O)c1cc(CNc2ccccc2)cn1S(=O)(=O)c1cc(Cl)ccc1N [ethyl 1-[(2-amino-5-chlorobenzene)sulfonyl]-4-[(phenylamino)methyl]-1H-pyrrole-2-carboxylate] | 500 nM |
| C=Cc1cc(C(=O)OCC)n(S(=O)(=O)c2cc(Cl)ccc2N)c1 [ethyl 1-[(2-amino-5-chlorobenzene)sulfonyl]-4-ethenyl-1H-pyrrole-2-carboxylate] | 280 nM |
| CCOC(=O)c1cc(C)cn1S(=O)(=O)c1cc(Cl)ccc1N [ethyl 1-[(2-amino-5-chlorobenzene)sulfonyl]-4-methyl-1H-pyrrole-2-carboxylate] | 80 nM |
| CCOC(=O)c1cccn1S(=O)(=O)c1c(N)cccc1Cl [ethyl 1-[(2-amino-6-chlorobenzene)sulfonyl]-1H-pyrrole-2-carboxylate] | > 100000 nM |
| CC(C)OC(=O)c1cc(CO)cn1S(=O)(=O)c1cc(Cl)ccc1N [propan-2-yl 1-[(2-amino-5-chlorobenzene)sulfonyl]-4-(hydroxymethyl)-1H-pyrrole-2-carboxylate] | 110 nM |
| CC(C)OC(=O)c1cc(CNc2ccccc2)cn1S(=O)(=O)c1cc(Cl)ccc1N [propan-2-yl 1-[(2-amino-5-chlorobenzene)sulfonyl]-4-[(phenylamino)methyl]-1H-pyrrole-2-carboxylate] | 300 nM |
